Measured values published in US20210204574A1, “Consumable Product Comprising Malted Wheat” (Lantmannen Functional Foods AB, priority 2018, published 2021).

How the values were obtained:
[1] = tested on: cholera toxin-induced secretion; parameters: species or system Sprague-Dawley rats; conditions: rat, in vivo
[2] = tested on: compleasomes (proteasome/complement complexes); test: Compleasome assay in blood (sandwich ELISA, mab against AF / polyclonal against C3c); type: in vivo, Sprague-Dawley rats; conditions: for proteasome/C3 complex (AF activity in blood) compared to controls: FIG. 10a, 5 μM phenol or leachate in drinking water for 14 days, reversed titre; for compleasome concentration (AF activity in blood): FIG. 10b, in drinking water for 14 days, 5 animals/group
Procedure: In another set of experiments, the rats were given water extracts of the cereals or purified phenols in their drinking water. The malted Kosack wheat was milled to flour, of which 200 g was put in a glass flask and 800 ml boiling water was successively mixed with the flour. After 3 hours of slow cooling to room temperature, the soak-water was filtered through a nylon filter and centrifuged for 30 min at 12000×g. The supernatant was frozen in 50 ml portions and diluted 1:6 with water each day during the experiment. Freeze-dried purified fractions of wheat extracts were dissolved in the drinking water. […] The drinks or the water control were given in excess over 1-14 days before testing of antisecretory activity.
Rats were given leachate from malted wheat or pure phenols in the drinking water as described above. After 14 days, blood samples were drawn as described elsewhere (Bjorck et al., 2000 and Lönnroth et al., 2016) and the antisecretory activity in blood was estimated by performing a sandwich enzyme-linked immunosorbent assay (ELISA) for detection of compleasomes (proteasome/complement complexes) in blood plasma as described elsewhere (Lonnroth et al., 2016). A monoclonal antibody (mab) against antisecretory factor was used as catching antibody and a polyclonal antibody against complement factor 3c as detecting antibody. The titre was determined after development by a secondary antibody coupled to alkaline phosphatas.

| Molecule | AF units [1] | Inhibition, % [1] | antisecretory activity of pure phenols (in words) [1] | proteasome/C3 complex (AF activity in blood) compared to controls [2] | compleasome concentration (AF activity in blood) [2] |
| --- | --- | --- | --- | --- | --- |
| Oc1cc2c(cc1O)CN(C(=S)NCCc1ccc(Cl)cc1)CCC2 [Capsazepine] | 0.8 ± 0.1 1.3 ± 0.1 AF units | 38 66% | as active as guaiacol |  |  |
| COc1ccc([C@@H]2OC[C@@H]3[C@H]2CO[C@H]3c2ccc(OC)c(OC)c2)cc1OC [Eudesmine] |  | 16% | increased secretion |  |  |
| COc1cc(/C=C/C(=O)O)ccc1O [Ferulic acid] | 1.2 ± 0.2 AF units | 67% | significant antisecretory activity | significantly higher |  |
| COc1ccccc1O [Guaiacol, 2-methoxyphenol] | 0.9 ± 0.3 1.0 ± 0.2 1.5 ± 0.2 AF units | 46 51 76% | induced antisecretory activity as early as day 1 | significantly higher |  |
| O=c1c(O)c(-c2ccc(O)c(O)c2)oc2cc(O)cc(O)c12 [Quercetin] | 0.8 ± 0.1 AF units | 42% | significant antisecretory activity |  |  |
| Oc1cccc(O)c1 [Resorcinol] | 0.6 ± 0.1 AF units | 30% | much smaller effect |  |  |
| OCc1ccccc1O[C@@H]1O[C@H](CO)[C@@H](O)[C@H](O)[C@H]1O [Salicin] | 0.3 ± 0.1 AF units | 17% | much smaller effect |  |  |
| COc1cc(C(=O)O)ccc1O [Vanillic acid] | 1.1 ± 0.1 AF units | 57% | significant antisecretory activity |  |  |
| COc1ccccc1OC [Veratrole] |  | 21% | induced secretion |  |  |
| COc1cc(/C=C/C(=O)O)cc(OC)c1O [sinapic acid] |  |  |  |  | significant increase |
| catechin |  |  |  |  | significant increase |
